Measured values published in patent US10758534B2 (Vertex Pharmaceuticals Incorporated, priority 2014, dated 2020).

What follows are compounds tested against T1, F508del (Homo sapiens, UniProt P13569, DEL508-508) (assay: Protocol 1: membrane potential optical assay (FLIPR III, voltage sensing dye), identification of potentiator compounds). Conditions: Table 3, compounds of Table 1.
T1 construct: expressed in transfected cells
Type: cell-based
Method in brief: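 NIH3T3 F508del cells, 27° C × 24 hrs; compound/DMSO pretreat → redistribution dye load → single forskolin addition with Cl⁻ gradient (gluconate-substituted bath, HEPES pH 7.4). FLIPR III membrane-potential fluorescence read.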

T1 sequence (P13569 with tags, fused parts or gaps DEL508-508): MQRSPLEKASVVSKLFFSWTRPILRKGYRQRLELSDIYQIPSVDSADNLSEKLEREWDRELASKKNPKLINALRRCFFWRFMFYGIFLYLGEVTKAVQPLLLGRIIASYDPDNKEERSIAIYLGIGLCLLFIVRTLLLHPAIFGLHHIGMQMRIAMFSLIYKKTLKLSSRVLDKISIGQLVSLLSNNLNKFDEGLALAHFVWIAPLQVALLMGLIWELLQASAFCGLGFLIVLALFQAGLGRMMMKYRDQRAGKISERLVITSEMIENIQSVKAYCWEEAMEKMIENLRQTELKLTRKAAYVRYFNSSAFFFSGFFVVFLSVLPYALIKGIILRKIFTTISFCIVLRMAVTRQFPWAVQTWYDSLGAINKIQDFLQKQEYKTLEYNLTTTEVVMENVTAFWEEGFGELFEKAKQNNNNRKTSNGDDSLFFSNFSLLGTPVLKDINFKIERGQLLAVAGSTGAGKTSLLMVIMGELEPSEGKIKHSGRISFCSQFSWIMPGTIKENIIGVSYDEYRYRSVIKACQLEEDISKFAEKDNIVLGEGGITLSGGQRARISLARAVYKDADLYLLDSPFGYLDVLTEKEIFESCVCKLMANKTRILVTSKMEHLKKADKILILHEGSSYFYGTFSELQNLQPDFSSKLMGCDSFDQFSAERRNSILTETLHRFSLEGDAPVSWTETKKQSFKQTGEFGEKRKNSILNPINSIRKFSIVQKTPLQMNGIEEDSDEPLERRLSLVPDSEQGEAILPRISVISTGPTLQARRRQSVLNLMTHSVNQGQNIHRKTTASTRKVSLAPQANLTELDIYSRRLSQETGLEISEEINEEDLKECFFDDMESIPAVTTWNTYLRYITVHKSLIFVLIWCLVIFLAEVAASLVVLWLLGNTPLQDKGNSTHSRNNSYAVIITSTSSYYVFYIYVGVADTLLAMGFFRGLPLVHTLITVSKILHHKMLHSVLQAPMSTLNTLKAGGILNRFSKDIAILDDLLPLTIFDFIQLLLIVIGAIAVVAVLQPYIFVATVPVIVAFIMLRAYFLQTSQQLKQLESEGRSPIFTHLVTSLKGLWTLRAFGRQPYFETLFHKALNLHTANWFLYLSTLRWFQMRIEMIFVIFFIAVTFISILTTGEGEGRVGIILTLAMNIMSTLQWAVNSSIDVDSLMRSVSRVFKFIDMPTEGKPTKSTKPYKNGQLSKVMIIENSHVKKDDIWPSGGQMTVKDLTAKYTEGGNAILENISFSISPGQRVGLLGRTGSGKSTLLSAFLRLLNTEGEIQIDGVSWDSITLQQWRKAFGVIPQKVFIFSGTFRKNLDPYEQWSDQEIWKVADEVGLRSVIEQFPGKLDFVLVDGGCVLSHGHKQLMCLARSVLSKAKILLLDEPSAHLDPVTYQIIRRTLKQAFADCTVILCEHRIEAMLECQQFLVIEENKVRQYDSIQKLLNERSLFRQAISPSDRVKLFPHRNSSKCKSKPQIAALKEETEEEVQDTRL

Compound	EC30
Cc1cc(C)c(Oc2nc(C3(C)CC3)ccc2C(=O)NS(=O)(=O)c2ccc[nH]c2=O)c(C)c1 [Compound 1226, 6-(1-methylcyclopropyl)-N-[(2-oxo-1H-pyridin-3-yl)sulfonyl]-2-(2,4,6-trimethylphenoxy)pyridine-3-carboxamide]	+++ (“+++” means <3 uM)
CC(C)COc1cc(F)cc(-c2ccc(C(=O)NS(=O)(=O)c3ccn[nH]3)c(N3C(C)CC(c4ccccc4)C3C)n2)c1 (stereo not shown) [Compound 1348, 2-(2,5-dimethyl-3-phenyl-pyrrolidin-1-yl)-6-(3-fluoro-5-isobutoxy-phenyl)-N-(1H-pyrazol-5-ylsulfonyl)pyridine-3-carboxamide]	+++ (“+++” means <3 uM)
Cn1ccc2c(Cn3nc(C(C)(C)C)cc3C(=O)NS(=O)(=O)c3cccc(N)c3)cccc21 [Compound 927, N-(3-aminophenyl)sulfonyl-5-tert-butyl-2-[(1-methylindol-4-yl)methyl]pyrazole-3-carboxamide]	++ (“++” means between 3 uM and 10 uM)
C[C@@H]1CN(c2nc(-c3ccc(F)c(F)c3)ccc2C(=O)NS(=O)(=O)c2cccnc2N)C(C)(C)C1 [Compound 1854, N-[(2-amino-3-pyridyl)sulfonyl]-6-(3,4-difluorophenyl)-2-[(4S)-2,2,4-trimethylpyrrolidin-1-yl]pyridine-3-carboxamide]	+++ (“+++” means <3 uM)
Cc1cc(C)c2c(c1)CCN2c1nc(-c2cc(F)cc(OCC(C)C)c2)ccc1C(=O)NS(=O)(=O)c1cccc(N)n1 [Compound 1572, N-[(6-amino-2-pyridyl)sulfonyl]-2-(5,7-dimethylindolin-1-yl)-6-(3-fluoro-5-isobutoxy-phenyl)pyridine-3-carboxamide]	+++ (“+++” means <3 uM)
COc1cc(-c2ccc(C(=O)NS(=O)(=O)c3cccc(N)n3)c(N3C[C@@H](C)CC3(C)C)n2)cc(C)n1 [Compound 1748, N-[(6-amino-2-pyridyl)sulfonyl]-6-(2-methoxy-6-methyl-4-pyridyl)-2-[(4S)-2,2,4-trimethylpyrrolidin-1-yl]pyridine-3-carboxamide]	+++ (“+++” means <3 uM)
CC(C)COc1cc(F)cc(-c2ccc(C(=O)NS(=O)(=O)c3cccc(N)n3)c(N3CCC(Cc4ccccc4)C3C)n2)c1 (stereo not shown) [Compound 969, N-[(6-amino-2-pyridyl)sulfonyl]-2-(3-benzyl-2-methyl-pyrrolidin-1-yl)-6-(3-fluoro-5-isobutoxy-phenyl)pyridine-3-carboxamide]	+++ (“+++” means <3 uM)
CC(C)COc1cc(F)cc(-c2ccc(C(=O)NS(=O)(=O)N3CC4C[C@H]3CO4)c(N3C[C@@H](C)CC3(C)C)n2)c1 [Compound 1789, 6-(3-fluoro-5-isobutoxy-phenyl)-N—[[(4S)-2-oxa-5-azabicyclo[2.2.1]heptan-5-yl]sulfonyl]-2-[(4S)-2,2,4-trimethylpyrrolidin-1-yl]pyridine-3-carboxamide]	+++ (“+++” means <3 uM)
CC(C)COc1cc(F)cc(-c2ccc(C(=O)NS(=O)(=O)c3cccc(N)n3)c(OCCCc3ccccc3)n2)c1 [Compound 1694, N-[(6-amino-2-pyridyl)sulfonyl]-6-(3-fluoro-5-isobutoxy-phenyl)-2-(3-phenylpropoxy)pyridine-3-carboxamide]	+++ (“+++” means <3 uM)
CC(C)COc1cc(F)cc(-c2ccc(C(=O)NS(=O)(=O)c3cccc(N)n3)c(OC3C(C)CCCC3C)n2)c1 (stereo not shown) [Compound 978, N-[(6-amino-2-pyridyl)sulfonyl]-2-(2,6-dimethylcyclohexoxy)-6-(3-fluoro-5-isobutoxy-phenyl)pyridine-3-carboxamide]	+++ (“+++” means <3 uM)
CCC1CCN(c2nc(-c3cc(F)cc(OCC(C)C)c3)ccc2C(=O)NS(=O)(=O)c2ccn[nH]2)CC1 [Compound 1030, 2-(4-ethyl-1-piperidyl)-6-(3-fluoro-5-isobutoxy-phenyl)-N-(1H-pyrazol-5-ylsulfonyl)pyridine-3-carboxamide]	+++ (“+++” means <3 uM)
COc1ccc(-c2ccc(C(=O)NS(=O)(=O)c3ccc[nH]c3=O)c(Oc3c(C)cc(C)cc3C)n2)cc1 [Compound 980, 6-(4-methoxyphenyl)-N-[(2-oxo-1H-pyridin-3-yl)sulfonyl]-2-(2,4,6-trimethylphenoxy)pyridine-3-carboxamide]	++ (“++” means between 3 uM and 10 uM)
CC(C)COc1cc(F)cc(-c2ccc(C(=O)NS(=O)(=O)c3cccc(N)n3)c(N3CC(C)CCC3C)n2)c1 (single isomer, unassigned) [Compound 1993, N-[(6-amino-2-pyridyl)sulfonyl]-2-(2,5-dimethyl-1-piperidyl)-6-(3-fluoro-5-isobutoxy-phenyl)pyridine-3-carboxamide]	+++ (“+++” means <3 uM)
CC(C)Oc1ccc(-c2ccc(C(=O)NS(=O)(=O)c3cccc(N)n3)c(N3CCCC(c4cccc(Cl)c4)C3)n2)cn1 (stereo not shown) [Compound 1339, N-[(6-amino-2-pyridyl)sulfonyl]-2-[3-(3-chlorophenyl)-1-piperidyl]-6-(6-isopropoxy-3-pyridyl)pyridine-3-carboxamide]	+++ (“+++” means <3 uM)
CC(C)Oc1ccc(-c2ccc(C(=O)NS(=O)(=O)c3cccc(N)n3)c(N3CCC(F)CC3)n2)cn1 [Compound 913, N-[(6-amino-2-pyridyl)sulfonyl]-2-(4-fluoro-1-piperidyl)-6-(6-isopropoxy-3-pyridyl)pyridine-3-carboxamide]	++ (“++” means between 3 uM and 10 uM)
CCOc1cccc2c1CN(Cc1cc(F)cc(OC)c1)C2(C)C(=O)NS(=O)(=O)c1cccc(N)n1 (stereo not shown) [Compound 1421, N-[(6-amino-2-pyridyl)sulfonyl]-4-ethoxy-2-[(3-fluoro-5-methoxy-phenyl)methyl]-1-methyl-isoindoline-1-carboxamide]	+++ (“+++” means <3 uM)
CC(C)Oc1ccn(-c2ccc(C(=O)NS(=O)(=O)c3cccnc3N)c(N3C[C@@H](C)CC3(C)C)n2)n1 [Compound 1844, N-[(2-amino-3-pyridyl)sulfonyl]-6-(3-isopropoxypyrazol-1-yl)-2-[(4S)-2,2,4-trimethylpyrrolidin-1-yl]pyridine-3-carboxamide]	+++ (“+++” means <3 uM)
CCOC(=O)C1CC=C(c2ccc(C(=O)NS(=O)(=O)c3cccc(N)n3)c(Oc3c(C)cc(C)cc3C)n2)CC1 (stereo not shown) [Compound 1432, ethyl 4-[5-[(6-amino-2-pyridyl)sulfonylcarbamoyl]-6-(2,4,6-trimethylphenoxy)-2-pyridyl]cyclohex-3-ene-1-carboxylate]	+++ (“+++” means <3 uM)
Cc1cc(C)c(Oc2nc(-c3cnc(N(C)C)nc3)ccc2C(=O)NS(=O)(=O)c2cccc(N)n2)c(C)c1 [Compound 1139, N-[(6-amino-2-pyridyl)sulfonyl]-6-[2-(dimethylamino)pyrimidin-5-yl]-2-(2,4,6-trimethylphenoxy)pyridine-3-carboxamide]	+++ (“+++” means <3 uM)
CC(C)COc1cc(F)cc(-c2ccc(C(=O)NS(=O)(=O)c3cccc(N)n3)c(OCCCn3cccn3)n2)c1 [Compound 1692, N-[(6-amino-2-pyridyl)sulfonyl]-6-(3-fluoro-5-isobutoxy-phenyl)-2-(3-pyrazol-1-ylpropoxy)pyridine-3-carboxamide]	++ (“++” means between 3 uM and 10 uM)
CC(C)COc1cc(F)cc(-c2ccc(C(=O)NS(=O)(=O)c3cccc(N)n3)c(OC3(Cc4ccccc4)CCC3)n2)c1 [Compound 1479, N-[(6-amino-2-pyridyl)sulfonyl]-2-(1-benzylcyclobutoxy)-6-(3-fluoro-5-isobutoxy-phenyl)pyridine-3-carboxamide]	+++ (“+++” means <3 uM)
COc1ccc(C(=O)NS(=O)(=O)c2cccc(N)n2)c(N2C[C@@H](C)CC2(C)C)n1 [Compound 1536, N-[(6-amino-2-pyridyl)sulfonyl]-6-methoxy-2-[(4S)-2,2,4-trimethylpyrrolidin-1-yl]pyridine-3-carboxamide]	++ (“++” means between 3 uM and 10 uM)
CC(C)COc1cc(F)cc(-c2ccc(C(=O)NS(=O)(=O)c3ccn[nH]3)c(N3CCC(OCC4CC4)CC3)n2)c1 [Compound 1088, 2-[4-(cyclopropylmethoxy)-1-piperidyl]-6-(3-fluoro-5-isobutoxy-phenyl)-N-(1H-pyrazol-5-ylsulfonyl)pyridine-3-carboxamide]	+++ (“+++” means <3 uM)
CC(C)(C)c1ccc(C(=O)NS(=O)(=O)c2cccc(N)n2)c(N2CCC(C(C)(C)O)CC2)n1 [Compound 1038, N-[(6-amino-2-pyridyl)sulfonyl]-6-tert-butyl-2-[4-(1-hydroxy-1-methyl-ethyl)-1-piperidyl]pyridine-3-carboxamide]	++ (“++” means between 3 uM and 10 uM)
CC(C)Oc1ccc(-c2ccc(C(=O)NS(=O)(=O)c3cccc(N)n3)c(N3CC[C@@H](C)C3(C)C)n2)cn1 [Compound 992, N-[(6-amino-2-pyridyl)sulfonyl]-6-(6-isopropoxy-3-pyridyl)-2-[(3R)-2,2,3-trimethylpyrrolidin-1-yl]pyridine-3-carboxamide]	+++ (“+++” means <3 uM)
CC(=O)c1cccc(Nc2cccc(S(=O)(=O)NC(=O)c3cccnc3N3CC(C)CC3(C)C)n2)c1 (stereo not shown) [Compound 1949, N—[[6-(3-acetylanilino)-2-pyridyl]sulfonyl]-2-(2,2,4-trimethylpyrrolidin-1-yl)pyridine-3-carboxamide]	+++ (“+++” means <3 uM)
C[C@@H]1CN(c2nc(-c3cccc(F)c3)ccc2C(=O)NS(=O)(=O)c2cccnc2N)C(C)(C)C1 [Compound 1873, N-[(2-amino-3-pyridyl)sulfonyl]-6-(3-fluorophenyl)-2-[(4S)-2,2,4-trimethylpyrrolidin-1-yl]pyridine-3-carboxamide]	+++ (“+++” means <3 uM)
CCN(CC)c1nc(-c2ccc(C(=O)NS(=O)(=O)c3cccc(N)n3)c(N3CC(C)CC3(C)C)n2)ccc1C (stereo not shown) [Compound 1907, N-[(6-amino-2-pyridyl)sulfonyl]-6-[6-(diethylamino)-5-methyl-2-pyridyl]-2-(2,2,4-trimethylpyrrolidin-1-yl)pyridine-3-carboxamide]	+++ (“+++” means <3 uM)
